Patent US4588725A, “2-piperazinyl-quinazoline derivatives and pharmaceutical compositions containing them” (Sandoz Ltd., priority 1982, dated 1986)
pIC50: −log10 of the molar value.

What was measured:
locomotion = assay: inhibition of locomotion in mice; type: in vivo, mice (male, OF-1); settings: Mus musculus, po, minimum dose with significant inhibition, p.o., 1 hour after administration, read-out: Locomotor inhibition EDmin
Description: In particular, the compounds of formula I are useful as neuroleptic agents in the treatment of e.g. psychotic disorders such as schizophrenia, as indicated in standard tests, e.g. by an inhibition of locomotion in mice. In this test groups of 3 male mice (18-24 g, OF-1, Sandoz Basle) received 3.2, 10, 32, 100 and […]. of the test drug. 1 hour after drug administration the mice were observed individually and their locomotion compared with that of control. The locomotion of the animals was observed and the EDmin (the minimum dose at which significant inhibition was observed) determined.

[1] = tested on: sleep/wake cycle (sleep phase II, paradoxical sleep); assay: sleep/wake cycle in rats; type: in vivo
Description: Furthermore, the compounds on administration of 2-20 mg/kg p.o. to rats increase the sleep phase II and decrease the paradoxical sleep in the sleep/wake cycle carried out in accordance with the principles of H. Kleinlogel et al., European J. Pharmacol. 33, 159-163 (1975). […]

[2] = target: T1, 3H-spiperone binding sites (Bos taurus, UniProt P20288); assay: 3H-spiperone binding in calf brain striatal tissue; settings: for pIC50: calf striatal membranes, 0.1 nM 3H-spiperone, 5×10^-7 M cinanserin, pH 7.7, 40 min room temperature, read-out: Receptor binding IC50 3H-spiperone; for effect in the 3H-spiperone binding test compared with Clozapine: in words, versus Clozapine
T1 construct: fresh calf brain striatal tissue was homogenized; from tissue; host or cells: calf brain striatum, membranes
Description: The compounds of the invention bind further on ^3 H-spiperone binding sites in the brain [modified method of J. Leysen et al., Biochem. Pharmac. […] The test was performed as follows: fresh calf brain striatal tissue was homogenized in the 25 fold volume of tris buffer (pH 7.4, 50 mM, 120 mM sodium chloride) and centrifuged. The pellets were suspended in the 22 fold volume of tris buffer, incubated for 15 minutes at 37° C. and centrifuged. The pellets were suspended in the 300 fold volume of tris buffer. […] After incubation for 40 minutes at room temperature, the assay mixtures were rapidly filtered through Whatman GF/B filter, the filters washed twice with 5 ml of ice cold tris buffer and scintillation-counted.

[3] = tested on: blood pressure or heart rate; assay: blood pressure / heart rate in anaesthetized normotonic rats; type: in vivo, female normotonic rats (Sprague-Dawley); settings: Rattus norvegicus, iv, cumulative i.v. doses, by interpolation, read-out: ED75 (dose required to reduce the blood pressure or the heart rate to 75% of pretreatment values)
Description: In another test female normotonic rats (200-350 g, Sprague-Dawley, Suddeutsche Tierfarm, Tuttlingen, FRG) were anaesthetized with urethane (1.5-1.75 g/kg i.p. in 2 portions) and a tracheal cannula was inserted. Blood pressure and heart rate were recorded from the carotid artery by conventional methods. Test drugs were administered by the jugular or the femoral vein. Body temperature was maintained at 34° C. by means of a temperature regulator (Alfos MK-4) triggered by a thermistor on the animal. After adaptation, increasing doses of the test drug were injected i.v. to give the following cumulative doses: 3, 13, 43, 143, 343 and 1443 μg/kg. ED 75% is the dose required to reduce the blood pressure or the heart rate to 75% of pretreatment values. It was obtained through interpolation. The ED75 of the Example 3a compound is 524 μg/kg i.v.

α1-receptors = assay: 3H-Prazosin binding assay for α1-receptors in calf brain cortex tissue; settings: calf brain cortex membranes, 0.3 nM 3H-Prazosin, pH 7.7, 40 min room temperature; read-out: IC50 (inhibition of specific 3H-Prazosin binding)
Description: The compounds of the invention are furthermore useful as anti-hypertensive agents, as indicated in standard tests, for example in the ^3 H-Prazosin binding assay for α1 -receptors [modified method of Greengrass P., et al., Eur. J. Pharmac. 55, 323-326 (1979)]. The test was performed as follows:
Fresh calf brain cortex tissue is homogenized in a 20 fold volume of Tris-HCl buffer (50 mM, pH 7.7), using a Polytron PT 20, and centrifuged at 30,000×g for 25 min. The pellets are resuspended in a 13 fold volume of the same buffer, incubated for 15 min at 37° C., and recentrifuged at 50,000×g for 11 min. The pellets of this centrifugation are frozen at -20° C. and resuspended in a 60 fold volume of the same buffer as above before use for the binding experiment. The composition of the assay mixtures (total volume=2 ml) is as follows: 50 mM Tris-HCl pH 7.7, membranes corresponding to 30 mg of original tissue weight, and 0.3 nM ^3 H-Prazosin. The assays for the definition of nonspecific binding additionally contain phentolamine at a concentration of 10 μM. To assess the potency of drugs in inhibiting specific ^3 H-Prazosin binding (difference between total and nonspecific binding), the test compounds are added to give 5 to 9 different concentrations between 1 nM and 10 μM, each in duplicate. […] The radioactivity of the filters is estimated by scintillation counting.

T1 sequence (P20288 whole entry): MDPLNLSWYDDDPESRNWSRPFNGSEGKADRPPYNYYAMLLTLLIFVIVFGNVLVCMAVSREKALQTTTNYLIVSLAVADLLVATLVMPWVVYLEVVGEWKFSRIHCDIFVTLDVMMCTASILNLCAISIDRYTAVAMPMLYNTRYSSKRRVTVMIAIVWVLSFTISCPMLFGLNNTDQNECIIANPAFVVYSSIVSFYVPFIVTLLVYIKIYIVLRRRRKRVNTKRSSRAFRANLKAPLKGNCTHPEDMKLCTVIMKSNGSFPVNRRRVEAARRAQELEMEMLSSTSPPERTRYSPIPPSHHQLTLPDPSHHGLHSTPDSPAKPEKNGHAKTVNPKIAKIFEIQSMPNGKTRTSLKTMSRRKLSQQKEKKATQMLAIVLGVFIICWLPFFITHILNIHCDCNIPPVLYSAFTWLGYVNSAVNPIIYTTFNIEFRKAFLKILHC

pIC50 [2] | pIC50 (α1-receptors) | SMILES | minimal effective dose (locomotion) [mg/kg] | Sleep phase II ([1]; 3.2 mg/kg po) | paradoxical sleep ([1]; 3.2 mg/kg po) | effect in the 3H-spiperone binding test compared with Clozapine [2] | ED75 [3] [mg/kg] | Sleep phase II ([1]; 10 mg/kg po) | paradoxical sleep ([1]; 10 mg/kg po)
6.46 | – | O=C(CCCN1CCN(c2ncc3ccccc3n2)CC1)c1ccc(F)cc1 [Example 1, 4-[4-(Quinazolin-2-yl)-1-piperazinyl]-1-(4-fluorophenyl)-1-butanone] | 3.3 | 171 % of control | 92 % of control | stronger effects in the ^3 H-spiperone binding test than Clozapine | – | – | –
– | 8.46 | Cc1nc(N2CCN(CCCC(=O)c3ccc(F)cc3)CC2)nc2ccccc12 [Example 3a] | – | – | – | – | 0.524 | – | –
6.47 | – | O=C(CCCN1CCN(c2nc(-c3ccccc3)c3ccccc3n2)CC1)c1ccc(F)cc1 [Example 3e] | < 3.2 | – | – | stronger effects in the ^3 H-spiperone binding test than Clozapine | – | 607 % of control | 9 % of control
– | – | CN1CCN(C2=Nc3cc(Cl)ccc3Nc3ccccc32)CC1 [clozapine, reference compound] | 3.2 | – | – | – | – | 483 % of control | 26 % of control
